# Values of other authors in PubChem BioAssay AID1259409 (Chemical Carcinogenesis Research Information System (CCRIS), 2018).
# Tested on: rodent chemically induced tumor inhibition, incidence and multiplicity
# Assay: CCRIS tumor inhibitor studies
# Conditions: Promoter: NONE USED
structure (smiles),measurement,setting,value
CCOC(=O)C(C)(C)Oc1ccc(Cl)cc1,"tumour outcome (control, treated, inhibition, significance)","Carcinogen: N-NITROSOBIS(2-HYDROXYPROPYL)AMINE, 53609-64-6, Dose [Inhibitor]: 0.25% IN DIET FOLLOWING LAST CARCINOGEN DOSE FOR 30 WK (STUDY DURATION: 35 WK), Route [Inhibitor]: ORAL, Species: HAMSTER, Strain/Sex: SYRIAN/MALE, Target Tissue: Type of Lesion: KIDNEY: RENAL CELL CARCINOMA, Dose [Carcinogen]: 500 MG/KG BW 1/WK FOR 5 WK","1/17 (6%), 2/16 (13%), -117%, not calculated"
same,"tumour outcome (control, treated, inhibition, significance)","Carcinogen: N-NITROSOBIS(2-HYDROXYPROPYL)AMINE, 53609-64-6, Dose [Inhibitor]: 0.25% IN DIET FOLLOWING LAST CARCINOGEN DOSE FOR 30 WK (STUDY DURATION: 35 WK), Route [Inhibitor]: ORAL, Species: HAMSTER, Strain/Sex: SYRIAN/MALE, Target Tissue: Type of Lesion: LUNG: ADENOCARCINOMA, Dose [Carcinogen]: 500 MG/KG BW 1/WK FOR 5 WK","3/17 (18%), 0/16 (0%), 100%, not calculated"
same,"tumour outcome (control, treated, inhibition, significance)","Carcinogen: N-NITROSOBIS(2-HYDROXYPROPYL)AMINE, 53609-64-6, Dose [Inhibitor]: 0.25% IN DIET FOLLOWING LAST CARCINOGEN DOSE FOR 30 WK (STUDY DURATION: 35 WK), Route [Inhibitor]: ORAL, Species: HAMSTER, Strain/Sex: SYRIAN/MALE, Target Tissue: Type of Lesion: LUNG: ADENOMA, Dose [Carcinogen]: 500 MG/KG BW 1/WK FOR 5 WK","16/17 (94%), 10/16 (63%), 33%, not calculated"
same,"tumour outcome (control, treated, inhibition, significance)","Carcinogen: N-NITROSOBIS(2-HYDROXYPROPYL)AMINE, 53609-64-6, Dose [Inhibitor]: 0.25% IN DIET FOLLOWING LAST CARCINOGEN DOSE FOR 30 WK (STUDY DURATION: 35 WK), Route [Inhibitor]: ORAL, Species: HAMSTER, Strain/Sex: SYRIAN/MALE, Target Tissue: Type of Lesion: PANCREAS: ADENOCARCINOMA, Dose [Carcinogen]: 500 MG/KG BW 1/WK FOR 5 WK","8/17 (47%), 3/16 (19%), 60%, not calculated"
same,"tumour outcome (control, treated, inhibition, significance)","Carcinogen: N-NITROSOBIS(2-HYDROXYPROPYL)AMINE, 53609-64-6, Dose [Inhibitor]: 0.25% IN DIET FOLLOWING LAST CARCINOGEN DOSE FOR 30 WK (STUDY DURATION: 35 WK), Route [Inhibitor]: ORAL, Species: HAMSTER, Strain/Sex: SYRIAN/MALE, Target Tissue: Type of Lesion: PANCREAS: ADENOMA, Dose [Carcinogen]: 500 MG/KG BW 1/WK FOR 5 WK","5/17 (29%), 4/16 (25%), 14%, not calculated"
same,"tumour outcome (control, treated, inhibition, significance)","Carcinogen: N-NITROSOBIS(2-HYDROXYPROPYL)AMINE, 53609-64-6, Dose [Inhibitor]: 0.5% IN DIET FOLLOWING LAST CARCINOGEN DOSE FOR 30 WK (STUDY DURATION: 35 WK), Route [Inhibitor]: ORAL, Species: HAMSTER, Strain/Sex: SYRIAN/MALE, Target Tissue: Type of Lesion: KIDNEY: RENAL CELL CARCINOMA, Dose [Carcinogen]: 500 MG/KG BW 1/WK FOR 5 WK","1/17 (6%), 3/17 (18%), -200%, not calculated"
same,"tumour outcome (control, treated, inhibition, significance)","Carcinogen: N-NITROSOBIS(2-HYDROXYPROPYL)AMINE, 53609-64-6, Dose [Inhibitor]: 0.5% IN DIET FOLLOWING LAST CARCINOGEN DOSE FOR 30 WK (STUDY DURATION: 35 WK), Route [Inhibitor]: ORAL, Species: HAMSTER, Strain/Sex: SYRIAN/MALE, Target Tissue: Type of Lesion: LUNG: ADENOCARCINOMA, Dose [Carcinogen]: 500 MG/KG BW 1/WK FOR 5 WK","3/17 (18%), 2/17 (12%), 33%, not calculated"
same,"tumour outcome (control, treated, inhibition, significance)","Carcinogen: N-NITROSOBIS(2-HYDROXYPROPYL)AMINE, 53609-64-6, Dose [Inhibitor]: 0.5% IN DIET FOLLOWING LAST CARCINOGEN DOSE FOR 30 WK (STUDY DURATION: 35 WK), Route [Inhibitor]: ORAL, Species: HAMSTER, Strain/Sex: SYRIAN/MALE, Target Tissue: Type of Lesion: LUNG: ADENOMA, Dose [Carcinogen]: 500 MG/KG BW 1/WK FOR 5 WK","16/17 (94%), 9/17 (53%), 44%, p<0.05"
same,"tumour outcome (control, treated, inhibition, significance)","Carcinogen: N-NITROSOBIS(2-HYDROXYPROPYL)AMINE, 53609-64-6, Dose [Inhibitor]: 0.5% IN DIET FOLLOWING LAST CARCINOGEN DOSE FOR 30 WK (STUDY DURATION: 35 WK), Route [Inhibitor]: ORAL, Species: HAMSTER, Strain/Sex: SYRIAN/MALE, Target Tissue: Type of Lesion: PANCREAS: ADENOCARCINOMA, Dose [Carcinogen]: 500 MG/KG BW 1/WK FOR 5 WK","8/17 (47%), 1/17 (6%), 87%, p<0.05"
same,"tumour outcome (control, treated, inhibition, significance)","Carcinogen: N-NITROSOBIS(2-HYDROXYPROPYL)AMINE, 53609-64-6, Dose [Inhibitor]: 0.5% IN DIET FOLLOWING LAST CARCINOGEN DOSE FOR 30 WK (STUDY DURATION: 35 WK), Route [Inhibitor]: ORAL, Species: HAMSTER, Strain/Sex: SYRIAN/MALE, Target Tissue: Type of Lesion: PANCREAS: ADENOMA, Dose [Carcinogen]: 500 MG/KG BW 1/WK FOR 5 WK","5/17 (29%), 2/17 (12%), 59%, not calculated"
Cn1cnc2c1c(=O)[nH]c(=O)n2C,"tumour outcome (control, treated, inhibition, significance)","Carcinogen: URETHANE, 51-79-6, Dose [Inhibitor]: 0.05 UMOL/G BW GIVEN AS 7 INJECTIONS 1/6 HR FOR 36 HR AFTER CARCINOGEN TREATMENT FOLLOWED BY 5 MO OBSERVATION PERIOD (ST, Route [Inhibitor]: INTRAPERITONEAL, Species: MOUSE, Strain/Sex: ICR/FEMALE, Target Tissue: Type of Lesion: LUNG: PAPILLARY ADENOMA, Dose [Carcinogen]: 0.1 MG/G BW ONCE AT 25 D OF AGE","31/59 (53%), 11/56 (20%), 62%, p<0.001"
CC(=O)OCC(=O)[C@@]1(O)CC[C@H]2[C@@H]3CCC4=CC(=O)CC[C@]4(C)[C@H]3C(=O)C[C@@]21C,"tumour outcome (control, treated, inhibition, significance)","Carcinogen: 1,2-DIMETHYLHYDRAZINE DIHYDROCHLORIDE, 306-37-6, Dose [Inhibitor]: 0, 2.5 MG/KG IN PEANUT OIL ON DAYS 1 AND 3 OF STUDY THEN 1/WK FOR 30 WK (STUDY DURATION: 31 WK), Route [Inhibitor]: SUBCUTANEOUS, Species: RAT, Strain/Sex: SPRAGUE-DAWLEY/MALE, Target Tissue: Type of Lesion: COLON: ADENOCARCINOMA, Dose [Carcinogen]: 9 MG/KG 1/WK FOR 7 WK THEN 19.4 MG/KG 1/WK FOR 13 WK","14/14 (100%), 12/13 (92%), 8%, not significant"
same,"tumour outcome (control, treated, inhibition, significance)","Carcinogen: 1,2-DIMETHYLHYDRAZINE DIHYDROCHLORIDE, 306-37-6, Dose [Inhibitor]: 0, 2.5 MG/KG IN PEANUT OIL ON DAYS 1 AND 3 OF STUDY THEN 1/WK FOR 30 WK (STUDY DURATION: 31 WK), Route [Inhibitor]: SUBCUTANEOUS, Species: RAT, Strain/Sex: SPRAGUE-DAWLEY/MALE, Target Tissue: Type of Lesion: SMALL INTESTINE: ADENOCARCINOMA, Dose [Carcinogen]: 9 MG/KG 1/WK FOR 7 WK THEN 19.4 MG/KG 1/WK FOR 13 WK","13/14 (93%), 10/13 (77%), 17%, not significant"
O=S(=O)([O-])[O-].O=S(=O)([O-])[O-].O=S(=O)([O-])[O-].[Fe+3].[Fe+3],"tumour outcome (control, treated, inhibition, significance)","Dose [Inhibitor]: 0, 15.5 UMOL (FE) INJECTED WITH CARCINOGEN INTO THIGH OF BOTH HIND LIMBS (STUDY DURATION: 79 WK), Route [Inhibitor]: INTRAMUSCULAR, Species: RAT, Strain/Sex: F344/MALE, Target Tissue: Type of Lesion: INJECTION SITE: SARCOMA, Dose [Carcinogen]: 2.5 MG PER SITE INJECTED INTO THIGH OF BOTH HIND LIMBS ONCE","100%, 98%, 2%, not significant"
same,"tumour outcome (control, treated, inhibition, significance)","Dose [Inhibitor]: 0, 30 UMOL (FE) INJECTED WITH CARCINOGEN INTO THIGH OF BOTH HIND LIMBS (STUDY DURATION: 79 WK), Route [Inhibitor]: INTRAMUSCULAR, Species: RAT, Strain/Sex: F344/MALE, Target Tissue: Type of Lesion: INJECTION SITE: SARCOMA, Dose [Carcinogen]: 2.5 MG PER SITE INJECTED INTO THIGH OF BOTH HIND LIMBS ONCE","100%, 45%, 55%, not calculated"
same,"tumour outcome (control, treated, inhibition, significance)","Dose [Inhibitor]: 0, 60 UMOL (FE) INJECTED INTO NAPE OF NECK (STUDY DURATION: 79 WK), Route [Inhibitor]: SUBCUTANEOUS, Species: RAT, Strain/Sex: F344/MALE, Target Tissue: Type of Lesion: INJECTION SITE: SARCOMA, Dose [Carcinogen]: 2.5 MG PER SITE INJECTED INTO THIGH OF BOTH HIND LIMBS","100%, 100%, 0%, not significant"
same,"tumour outcome (control, treated, inhibition, significance)","Dose [Inhibitor]: 0, 60 UMOL (FE) INJECTED WITH CARCINOGEN INTO THIGH OF BOTH HIND LIMBS (STUDY DURATION: 79 WK), Route [Inhibitor]: INTRAMUSCULAR, Species: RAT, Strain/Sex: F344/MALE, Target Tissue: Type of Lesion: INJECTION SITE: SARCOMA, Dose [Carcinogen]: 2.5 MG PER SITE INJECTED INTO THIGH OF BOTH HIND LIMBS ONCE","100%, 35%, 65%, not calculated"
